Measured values published in PMC8565777, “The chitinolytic activity of the Curtobacterium sp. isolated from field-grown soybean and analysis of its genome sequence” (PLoS ONE, 2021).

Test system: T1, GH18 chitinase from Curtobacterium sp. GD1 (carbohydrate binding protein, CBP)
T1 construct: native secreted enzyme, partially purified from chitin-induced culture supernatant (two major bands); 429 aa precursor, predicted 31 aa signal peptide removed; genome has 3 GH18 genes
Test: colorimetric p-nitrophenol release at […] nm, Lineweaver-Burk
Type: biochemical
Conditions: 100 mmol/L sodium phosphate pH 7.0, 37 °C, partially purified enzyme; substrate range 3-90 mmol/L; substrate of the Km not restated beside the value; unit printed as mmol (mmol/L presumably meant)

Molecule `CC(=O)N[C@H]1[C@H](Oc2ccc([N+](=O)[O-])cc2)O[C@H](CO)[C@@H](O[C@@H]2O[C@H](CO)[C@@H](O[C@@H]3O[C@H](CO)[C@@H](O)[C@H](O)[C@H]3NC(C)=O)[C@H](O)[C@H]2NC(C)=O)[C@@H]1O` [p-nitrophenyl-β-D-N,N’,N”-triacetylchitotriose] has a Km of 10 mmol.
